In ChEMBL document CHEMBL5303711, “ECBD screening data for assay EOS300108” (2023):
Structures can show the parent of a compound that is named as a salt. Activity calls are given as the source filed them. How the calls were made is not given here.

assay: Cytotoxicity activity against human HepG2 cells assessed by CellTiter-Glo luminescent cell viability assay.; format: toxicity, cell-based; set-up: assay stage confirmatory assay, source tissue liver; conditions: HepG2 cells, read-out: IC50 relative

For `C=CCNc1c(O)cc2c(O)c1C[C@@H](C)C[C@H](OC)[C@H](O)[C@@H](C)/C=C(/C)[C@H](OC(N)=O)[C@@H](OC)/C=C\C=C(\C)C(=O)N2`, which CC50 is on record?
Its CC50 is 0.1 µM (active).

Which CC50 does the source give for `COc1nc(OCc2cccc(-c3ccccc3)c2C)ccc1CNCCNC(C)=O` here?
Its CC50 is 4 µM (active).

With `CCC1(N(C)C)CCN(c2nc(N)c3cc(OC)c(OC)cc3n2)CC1` as the compound, how does the CC50 read?
The CC50 was 11.2 µM (active).

With `N#CCNC(=O)c1ccc(-c2ccnc(Nc3ccc(N4CCOCC4)cc3)n2)cc1` [MOMELOTINIB] as the compound, how does the CC50 read?
Its CC50 is 5.2 µM (active).

Which CC50 does the source give for `Cc1cc(NC(=O)c2cccc(NC(=O)/C=C/CN(C)C)c2)ccc1Nc1nccc(-c2cccnc2)n1` here?
The CC50 was 3.8 µM (active).

With `CCCCCCOC(=O)NC(=N)c1ccc(NCc2nc3cc(C(=O)N(CCC(=O)OCC)c4ccccn4)ccc3n2C)cc1` [DABIGATRAN ETEXILATE MESYLATE] as the compound, how does the CC50 read?
Its CC50 is 10.2 µM (active).

Which CC50 does the source give for `O=C(c1cccc(S(=O)(=O)N2CCOCC2)c1)N1CCN(c2nc3ccccc3s2)CC1` here?
Its CC50 is 5 µM (active).

With `CCc1nccn1[C@H]1CCCN(CCOc2ccccc2F)C1` as the compound, how does the CC50 read?
The CC50 was 9.3 µM (active).

Which CC50 does the source give for `FC(F)(F)c1ccc(CNc2ccc(Cc3c[nH]c4ncc(Cl)cc34)cn2)cn1` [PEXIDARTINIB] here?
The CC50 was 5.2 µM (active).

Which CC50 does the source give for `CCOc1cc(N2CCC(O)CC2)ccc1Nc1ncc2c(n1)N(C1CCCC1)CCC(=O)N2C` here?
Its CC50 is 4.3 µM (active).

With `CCOc1cc(CNCC(C)O)ccc1OCc1ccc(C)cc1` (stereo not given) as the compound, how does the CC50 read?
Its CC50 is 9.4 µM (active).

For `OCCOCCNCc1ccc(-c2cc(Cl)cc(Cl)c2)o1`, which CC50 is on record?
The CC50 was 11.7 µM (active).

With `COc1ccc(C(=O)N[C@@H]2CN(Cc3ccccc3)C[C@H]2CN(C)C)c(OC)c1` as the compound, how does the CC50 read?
The CC50 was 11.1 µM (active).

For `CNc1nc(N2CCN(C)CC2)nc2ccccc12`, which CC50 is on record?
Its CC50 is 5.5 µM (active).

Which CC50 does the source give for `Cc1cc(CS(=O)(=O)c2ccccc2)cc(OCc2ccc(CN3CCC[C@@H]3CO)cc2)c1` here?
Its CC50 is 7.9 µM (active).

Which CC50 does the source give for `CC(C)(C)C[C@H]1N[C@@H](C(=O)N[C@H]2CC[C@H](O)CC2)[C@H](c2cccc(Cl)c2F)[C@@]12C(=O)Nc1cc(Cl)ccc12` here?
Its CC50 is 4.9 µM (active).

With `COc1ccc(OC2CCN(CCC(=O)Nc3cccc(F)c3)CC2)cc1` as the compound, how does the CC50 read?
Its CC50 is 14.8 µM (inactive).

With `CCc1cc2c(cc1CC)CC(NC[C@H](O)c1ccc(O)c3[nH]c(=O)ccc13)C2` [INDACATEROL] as the compound, how does the CC50 read?
The CC50 was 9.1 µM (active).

For `Cc1ccc(NC(=O)c2cc3ccccc3c(=O)[nH]2)cc1`, which CC50 is on record?
Its CC50 is 50 µM (inactive).

With `CCCCn1nnnc1Cn1ncc(Cl)c(Cl)c1=O` as the compound, how does the CC50 read?
Its CC50 is 3 µM (active).

For `CCCC(=O)Nc1ccc(Nc2nc(C)cc(N(CC)CC)n2)cc1`, which CC50 is on record?
The CC50 was 4.2 µM (active).

Which CC50 does the source give for `O=C(Nc1ccc(-c2cn3ccsc3n2)cc1)c1cccc(CO)c1` here?
Its CC50 is 6.3 µM (active).

For `Cc1nc2c(=O)n(C)c(=O)nc-2n(C)n1`, which CC50 is on record?
The CC50 was 0.7 µM (active).

Which CC50 does the source give for `Nc1ncnc2c1ncn2[C@@H]1CC[C@@H](O)[C@H]1O` here?
The CC50 was 1.6 µM (active).

With `COc1cc(/N=c2\ssnc2Cl)cc(OC)c1OC` as the compound, how does the CC50 read?
The CC50 was 8.1 µM (active).

With `CC(C)c1cc(CNc2nc(Nc3cc(C4CC4)[nH]n3)cc(N3CCN(C)CC3)n2)on1` [XL-228] as the compound, how does the CC50 read?
Its CC50 is 1.7 µM (active).

Which CC50 does the source give for `COc1ccc(C(N)=O)c(OCc2cccc3cccnc23)c1` here?
The CC50 was 0.3 µM (active).

Which CC50 does the source give for `CCCNC(=O)N1CC(Oc2ccc(-c3noc(C4CCOCC4)n3)cc2)C1` here?
Its CC50 is 3.7 µM (active).

Which CC50 does the source give for `CCOC(=O)N1CCC(CN(Cc2ccc(Cl)cc2)Cc2ccc([N+](=O)[O-])s2)C1` (stereo not given) [SR9009] here?
Its CC50 is 24.4 µM (inactive).

For `O=C(Nc1ccc([N+](=O)[O-])cc1O)Nc1ccccc1Br`, which CC50 is on record?
The CC50 was 8.9 µM (active).

Which CC50 does the source give for `Cc1cc(C)cc(N2CCC(NCC3CCCNC3)CC2)c1` (stereo not given) here?
The CC50 was 8.2 µM (active).

Which CC50 does the source give for `CCS(=O)(=O)N1CCc2ccc(NC(=O)Nc3cccc(C)c3)cc21` here?
The CC50 was 2.2 µM (active).

Which CC50 does the source give for `O=S(=O)(c1cccs1)N1CCN(C[C@H](O)COc2cc(Cl)ccc2Cl)CC1` here?
Its CC50 is 8.9 µM (active).

For `CCN(CC)S(=O)(=O)c1cccc(C(=O)Nc2cccc(F)c2)c1`, which CC50 is on record?
The CC50 was 10.4 µM (active).

For `CCO[C@@H](CCNC(=O)c1csc(-c2ccoc2)n1)C(C)C`, which CC50 is on record?
The CC50 was 1.3 µM (active).

With `O=C(Cc1ccc(-n2cccn2)cc1)Nc1nccs1` as the compound, how does the CC50 read?
The CC50 was 0.6 µM (active).

With `CN1CCCC(CNc2ccc3cc(Cl)ccc3n2)C1` (stereo not given) as the compound, how does the CC50 read?
The CC50 was 7.9 µM (active).

For `Fc1ccc(C(OCCN2CCN(CCCc3ccccc3)CC2)c2ccc(F)cc2)cc1`, which CC50 is on record?
The CC50 was 5.7 µM (active).

Which CC50 does the source give for `N#CN=C(NCCCCCCOc1ccc(Cl)cc1)Nc1ccncc1` [CHS-828] here?
The CC50 was 0.1 µM (active).

For `CC1(COc2ccc3c(c2)ncn3-c2ccc3cccc(N4CCC(N)CC4)c3n2)COC1` [CRENOLANIB], which CC50 is on record?
The CC50 was 4.4 µM (active).

Which CC50 does the source give for `O=C1c2c(O)ccc(O)c2C(=O)c2c(NCCNCCO)ccc(NCCNCCO)c21` [MITOXANTRONE] here?
Its CC50 is 0.8 µM (active).

For `CCN1/C(=C/c2ccc3ccccc3[n+]2CC)C=Cc2ccccc21`, which CC50 is on record?
The CC50 was 1 µM (active).

For `O=C(Nc1cc(Cl)cc2cccnc12)c1ccoc1`, which CC50 is on record?
The CC50 was 0.3 µM (active).

With `Fc1cccc(N2CCCC2)c1CNc1nccc(N[C@H]2CCCOC2)n1` as the compound, how does the CC50 read?
The CC50 was 6.5 µM (active).

With `COc1c(C)cnc(Cn2cnc3c(Cl)nc(N)nc32)c1C` [BIIB021] as the compound, how does the CC50 read?
Its CC50 is 0.4 µM (active).

For `NC(=O)c1cc(-c2csc(Nc3ccccc3)n2)ccc1O`, which CC50 is on record?
Its CC50 is 14.2 µM (inactive).

Which CC50 does the source give for `COc1ccc(-c2ccc(CNCCNCCO)o2)cc1Cl` here?
The CC50 was 11.4 µM (active).

Which CC50 does the source give for `Nc1c(C(=O)NCc2ccco2)c2nc3ccccc3nc2n1CCN1CCCCC1` here?
Its CC50 is 8.9 µM (active).

With `Cc1cc(N2CCC[C@H](c3c[nH]c4ncccc34)C2)n2ncnc2n1` as the compound, how does the CC50 read?
The CC50 was 8.5 µM (active).

Which CC50 does the source give for `CS(=O)(=O)N1CCc2ccc(NC(=O)Nc3ccc(F)cc3F)cc21` here?
The CC50 was 24.5 µM (inactive).

Which CC50 does the source give for `COc1ccccc1OCC(=O)Nc1cccc2ncccc12` here?
Its CC50 is 9.3 µM (active).

Which CC50 does the source give for `O=c1[nH]c2ccccc2n1C1CCN(CCCC(c2ccc(F)cc2)c2ccc(F)cc2)CC1` [PIMOZIDE] here?
The CC50 was 4.6 µM (active).

For `COc1cc(N2CCN(C)CC2)ccc1Nc1ncc2c(n1)N(C1CCC1)C(=O)N(c1c(C)cccc1C)C2`, which CC50 is on record?
The CC50 was 3.3 µM (active).

For `Cc1ccc(S(=O)(=O)/N=C2\C=C(Sc3nc[nH]n3)C(=O)c3ccccc32)cc1`, which CC50 is on record?
The CC50 was 4.8 µM (active).

Which CC50 does the source give for `O=C(CCCCCCNC(=O)c1cnc(N(c2ccccc2)c2ccccc2Cl)nc1)NO` [CITARINOSTAT] here?
The CC50 was 3 µM (active).

Which CC50 does the source give for `CN1CCC2(CC1)CN(S(=O)(=O)c1ccc(Cl)s1)Cc1ccccc1O2` here?
Its CC50 is 9.7 µM (active).

Which CC50 does the source give for `CNCCCC12CCC(c3ccccc31)c1ccccc12` [MAPROTILINE HYDROCHLORIDE] here?
Its CC50 is 4.7 µM (active).

With `CN(c1ccc(NC(=O)Nc2ccc(OC(F)(F)F)cc2)cc1)c1ccnc(Nc2cccc(S(N)(=O)=O)c2)n1` [GW806742X] as the compound, how does the CC50 read?
The CC50 was 0.9 µM (active).

Which CC50 does the source give for `COc1cccc(NC(=O)N2CCN(c3ccnc(N4CCCCC4)n3)CC2)c1` here?
The CC50 was 11.5 µM (active).

For `CCC(C)n1ncn(-c2ccc(N3CCN(c4ccc(OCC5COC(Cn6cncn6)(c6ccc(Cl)cc6Cl)O5)cc4)CC3)cc2)c1=O` (stereo not given) [ITRACONAZOLE], which CC50 is on record?
The CC50 was 4.9 µM (active).

For `Cc1nc[nH]c1CNCCCc1ccc(C(C)C)cc1`, which CC50 is on record?
Its CC50 is 13.6 µM (inactive).

With `O=C(CC1NCCCC1O)Cn1cnc2cc(Br)c(Cl)cc2c1=O` (stereo not given) [HALOFUGINONE] as the compound, how does the CC50 read?
Its CC50 is 0.1 µM (active).

Which CC50 does the source give for `OCCn1cc(-c2ccc3c(c2)CC/C3=N\O)c(-c2ccncc2)n1` here?
The CC50 was 1.1 µM (active).

With `CC[C@H]1c2ccsc2CCN1C(=O)c1cc(OC)cc(OC)c1` as the compound, how does the CC50 read?
Its CC50 is 13 µM (active).

For `O=S(=O)(c1c[nH]cn1)N1CCNC[C@H]1c1cccc(Cl)c1`, which CC50 is on record?
The CC50 was 50 µM (inactive).
